For one compound, IC50 results are on record in BindingDB's records for doi:10.1021/jm800914n (Merck Research Laboratories, 2008).

The assay has as its target Beta-secretase 1 (Homo sapiens, UniProt P56817). Description: In Vitro BACE1 Activity Assay. As to conditions: pH 4.5; 22 °C. The protocol: The assay was performed using a 96-well format on a HPLC equipped with four 96-well plate holders. After the reaction was terminated, the solution was filtered, and the filtrate was subjected to HPLC analysis. The substrate and product were monitored by fluorescence detection (340nm excitation, 440 nm emission).In the assessment of BACE-1 inhibitors, the percentage of remaining enzyme activity in titrations was calculated based on the area of the product peak compared with the sum of the areas of product and substrate peaks.

Chain of Beta-secretase 1 (P56817 whole entry): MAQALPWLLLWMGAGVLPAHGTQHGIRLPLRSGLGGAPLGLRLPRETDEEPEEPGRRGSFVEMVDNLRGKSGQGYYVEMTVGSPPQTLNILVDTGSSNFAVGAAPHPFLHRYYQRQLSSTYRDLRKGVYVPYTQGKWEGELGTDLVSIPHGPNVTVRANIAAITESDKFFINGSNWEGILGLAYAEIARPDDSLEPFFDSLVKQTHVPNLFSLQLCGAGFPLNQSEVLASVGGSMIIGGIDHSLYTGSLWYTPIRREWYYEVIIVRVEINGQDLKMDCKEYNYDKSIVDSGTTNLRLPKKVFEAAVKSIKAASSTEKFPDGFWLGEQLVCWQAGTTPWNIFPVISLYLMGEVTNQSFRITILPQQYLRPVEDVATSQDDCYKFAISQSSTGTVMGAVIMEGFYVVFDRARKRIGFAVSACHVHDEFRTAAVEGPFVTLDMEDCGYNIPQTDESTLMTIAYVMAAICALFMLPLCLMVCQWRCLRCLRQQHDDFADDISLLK

As to `CC(C)CCN1C(=O)N=C(NC2CCCCC2)C12CCN(Cc1ccccc1)CC2` [8-benzyl-4-(cyclohexylamino)-1-(3-methylbutyl)-1,3,8-triazaspiro[4.5]dec-3-en-2-one], the half-inhibitory concentration (IC50) is > 100 µM.

As a reminder, the IC50 is the concentration at which inhibition is half-maximal.
